Here are results for 14 compounds from PubChem BioAssay (NCI).

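Cultured in 96-well plates, cells were exposed to test compound for 48 hours across five concentrations. GI50 marks 50% less growth. TGI: total growth inhibition.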 Where only a bound is given, the exact number is not on record here.

Among the test systems are TK-10 renal; OVCAR-3 ovarian; A549 NSCLC; KM12 colon; NCI/ADR-RES ovarian; RXF 393 renal; M14 melanoma; ACHN renal; NCI-H460 lung; MALME-3M melanoma.
Common to all, as to assay: NCI-60 cell line screen, 48 h

Take `Nc1c(C(=O)Nc2ccccc2)sc2nc3c(cc12)CCCCC3`: the GI50 with TK-10 renal is 2.39 µM; with OVCAR-3 ovarian, 0.415 µM; with A549 NSCLC, 0.696 µM; with KM12 colon, 0.52 µM; with NCI/ADR-RES ovarian, 0.507 µM; with RXF 393 renal, 0.321 µM. In addition, the values for the GI50 in the assay with M14 melanoma, with ACHN renal and with NCI-H460 lung were 0.278 µM, 0.998 µM and 0.46 µM, respectively. In addition, the TGI is 30.3 µM with TK-10 renal; 2.07 µM in the assay on OVCAR-3 ovarian; > 100 µM in the assay with A549 NSCLC; > 100 µM in the assay on KM12 colon; > 100 µM in the assay on NCI/ADR-RES ovarian; 1.22 µM with RXF 393 renal. For the same compound, the results for the TGI in the assay with M14 melanoma, in the assay with ACHN renal and with NCI-H460 lung were 0.945 µM, > 100 µM and > 100 µM, respectively.

Consider `COc1cc2c(c(OC)c1OC)-c1ccc(O)cc1[C@@H](NC(C)=O)CC2`, for which the GI50 was 0.0406 µM with TK-10 renal; 0.0232 µM with OVCAR-3 ovarian; 0.0666 µM with A549 NSCLC; 0.0358 µM with KM12 colon; 0.533 µM in the assay on NCI/ADR-RES ovarian; 0.033 µM in the assay with M14 melanoma. Besides, the GI50 in the assay on ACHN renal was 0.166 µM; in the assay with NCI-H460 lung, 0.0363 µM. For the same compound, the TGI in the assay with TK-10 renal is > 100 µM; in the assay with OVCAR-3 ovarian, 0.0513 µM; with A549 NSCLC, > 100 µM; with KM12 colon, 0.224 µM; in the assay on NCI/ADR-RES ovarian, 6.78 µM; in the assay on ACHN renal, > 100 µM. Besides, the TGI in the assay on NCI-H460 lung is > 34.9 µM.

In the case of `CC(CC(=O)N1C(=O)C(C)(C)[C@@H](O)[C@H]1CC(C)C(Cl)(Cl)Cl)C(Cl)(Cl)Cl` (stereo partly drawn), the TGI in the assay on TK-10 renal, with OVCAR-3 ovarian, in the assay with MALME-3M melanoma, in the assay with A549 NSCLC, in the assay on KM12 colon and in the assay with M14 melanoma was > 100 µM in each case. Besides, the TGI with ACHN renal and in the assay with NCI-H460 lung was > 100 µM each time.

As to `COc1cc(-c2nccc3cc(OC)c(OC)cc23)ccc1O`, the TGI in the assay with TK-10 renal, in the assay with OVCAR-3 ovarian, with MALME-3M melanoma, in the assay with A549 NSCLC, with KM12 colon and with M14 melanoma was > 100 µM in each case. Moreover, the TGI in the assay with ACHN renal and in the assay on NCI-H460 lung was > 100 µM in each case.

As to `CCOC(=O)C(=O)Nc1nc2c(OCC)cccc2s1`, the TGI in the assay with TK-10 renal, in the assay with OVCAR-3 ovarian, in the assay on MALME-3M melanoma, with A549 NSCLC, with KM12 colon and in the assay on RXF 393 renal was > 100 µM each time. The TGI with M14 melanoma, in the assay with ACHN renal and in the assay on NCI-H460 lung was > 100 µM each time.

Regarding `CN1CN(C2OC(CO)C(O)C2O)c2nc(N)[nH]c(=O)c21` (stereo not drawn), the TGI with TK-10 renal, with OVCAR-3 ovarian, in the assay with MALME-3M melanoma, with A549 NSCLC, in the assay with KM12 colon and with RXF 393 renal was > 100 µM in each case. Besides, the TGI with M14 melanoma, with ACHN renal and with NCI-H460 lung was > 100 µM throughout.

As to `CCCCCOCC(O)CO` (stereo not drawn), the TGI in the assay with TK-10 renal, in the assay with OVCAR-3 ovarian, with MALME-3M melanoma, in the assay with A549 NSCLC, with KM12 colon and in the assay on RXF 393 renal was > 100 µM in each case. Besides, the TGI with ACHN renal and with NCI-H460 lung was > 100 µM in each case.

For `C=C(CO)CC(O)c1cc(OC)ccc1OC` (stereo not drawn), the TGI in the assay with TK-10 renal, with OVCAR-3 ovarian, in the assay with MALME-3M melanoma, in the assay on A549 NSCLC, in the assay on KM12 colon and with RXF 393 renal was > 100 µM in each case. Moreover, the TGI with M14 melanoma, in the assay on ACHN renal and in the assay with NCI-H460 lung was > 100 µM throughout.

Take `Cc1cccc(-n2c(N)c(-c3nc4ccccc4[nH]3)sc2=S)c1`: the TGI amounted to 68.5 µM with TK-10 renal; 62.1 µM with OVCAR-3 ovarian; 74.4 µM with MALME-3M melanoma; 71.9 µM in the assay with A549 NSCLC; 52.2 µM in the assay on KM12 colon; 72.9 µM with RXF 393 renal. Moreover, the figures for the TGI in the assay with M14 melanoma and in the assay on ACHN renal were 48.4 µM and 99 µM, respectively.

For the compound `CN(C)CCN1C(=O)c2cccc3cc([N+](=O)[O-])cc(c23)C1=O`, the TGI is 6.27 µM in the assay on OVCAR-3 ovarian; 1.84 µM with MALME-3M melanoma; 0.397 µM in the assay with A549 NSCLC; 4.28 µM in the assay on KM12 colon; 0.923 µM with RXF 393 renal; 2.14 µM in the assay on M14 melanoma. In addition, the TGI in the assay with NCI-H460 lung came to 0.384 µM.

Take `COc1cc(OC)c(C(=O)c2cccs2)cc1N`: the TGI in the assay with TK-10 renal, in the assay on OVCAR-3 ovarian, in the assay on MALME-3M melanoma, with A549 NSCLC, in the assay with KM12 colon and in the assay with RXF 393 renal was > 100 µM in each case. Moreover, the TGI in the assay with M14 melanoma, in the assay on ACHN renal and in the assay with NCI-H460 lung was > 100 µM each time.

On to `N#CC(C(=O)C(=O)Nc1ccccc1)c1ccccc1` (stereo not drawn), for which the TGI in the assay on TK-10 renal, in the assay on OVCAR-3 ovarian, with MALME-3M melanoma, with A549 NSCLC, in the assay with KM12 colon and in the assay with M14 melanoma was > 100 µM throughout. Moreover, the TGI with ACHN renal was > 100 µM.

As to `Cc1nc2c(c(N3CCCc4ccccc43)n1)CCC2`, the GI50 in the assay with TK-10 renal is 1.62 µM; in the assay with A549 NSCLC, < 0.01 µM; with KM12 colon it was < 0.01 µM; in the assay with NCI/ADR-RES ovarian, < 0.01 µM; in the assay on ACHN renal, < 0.01 µM; in the assay on NCI-H460 lung, < 0.01 µM. In addition, the TGI is > 100 µM in the assay with TK-10 renal; > 100 µM with A549 NSCLC; > 100 µM in the assay with KM12 colon; 0.364 µM in the assay on NCI/ADR-RES ovarian; > 100 µM in the assay with ACHN renal; > 100 µM with NCI-H460 lung.

Take `N#CC12CCC1C1CCCCC12N1CCSCC1` (stereo not drawn): the TGI in the assay with OVCAR-3 ovarian is > 100 µM; in the assay on A549 NSCLC, > 100 µM; in the assay on KM12 colon, > 100 µM; with RXF 393 renal it was 86.5 µM; in the assay on ACHN renal, > 100 µM; with NCI-H460 lung, > 100 µM.
